Data: patent US9522928B2, “Mannosylated compounds useful for the prevention and the treatment of infectious diseases” (UNIVERSITE DE STRASBOURG, priority 2011, dated 2016)

How the values were obtained:
[1] = Hydrodynamic diameter of micelles (Zetasizer Nano ZS); type: physicochemical; details: in water at 0.5 mg/ml
Protocol: DiManinsatC24 was prepared according a procedure similar to that used for the preparation of TriDiManC24 except that: • pentacosanoic acid was replaced by 10,12-pentacosadiynoic acid, and • before the coupling with 10,12-pentacosadiynoic acid, the benzyl groups of compound 33 were replaced by acetyl group so as to provide compound 108 (as illustrated in FIG. 3E). ^1H NMR δ(ppm) (MeOD, 400 MHz) 4.87 (s, 3H), 4.73 (s, 3H), 3.64-3.50 (m, 14H), 3.46-3.20 (m, 76H), 2.97-2.93 (m, 6H), 2.33 (t, 6H, J=6.8 Hz), 2.09-1.96 (m, 6H), 1.08-1.05 (m, 32H), 0.66 (t, 3H, J=6.8 Hz). ^13C NMR δ (ppm) (MeOD, 100 MHz) 173.7, 168.8, 104.2, 101.2, 80.6, 80.4, 75.1, 74.7, 72.5, 72.2, 72.1, 71.9, 71.8, 71.7, 71.6, 71.4, 69.4, 69.1, 68.9, 68.7, 68.6, 68.0, 63.2, 63.1, 42.2, 37.0, 34.8, 33.7, 33.1, 30.8, 30.7, 30.6, 30.5, 30.4, 30.2, 29.5, 28.1, 27.0, 26.0, 23.7, 19.7, 14.4. IR (neat film, cm^−1): 3353, 2924, 1716, 1636, 1350, 1182, 1095, 1035, 1009, 837, 669. • Determination of critical micelle concentrations (CMCs) and size of particles. The hydrodynamic diameters of micelles of glycolipids were measured in water using a Zetasizer Nano ZS system (Malvern Instruments). The CMCs were measured using pyrene as an extrinsic fluorescent probe and were carried out as described (Perino et al., 2011). Briefly, a range of glycolipid samples were dissolved in water (1 ml), with concentrations ranging from 1.0 to 0.001 mg/ml. A stock solution of pyrene (1 mM) was prepared in dimethyl sulfoxyde and was added to each sample. Fluorescent emission of pyrene was measured at 25° C. using a Fluorolog spectrofluorometer (Jobin Yvon, Horiba). The intensities of fluorescence emission were determined at 374 nm (I374) and at 383 nm (I383), with an excitation at a 339 nm wavelength. The ratios I374/I383 were calculated and plotted against the glycolipid concentration. The CMC value was determined at the intersection of the two straight lines.

[2] = tested on: DCs; assay: Confocal microscopy of Alexa633-labeled TriManC24 in DCs; type: cell-based, human; details: Alexa Fluor 633 labeled compound, 100 μM, 10 min at 37° C.
Protocol: Human DCs (1×10^5 in 100 μl of RPMI medium) were exposed to Alexa633-labeled TriManC24 (100 μM final) for 10 min at 37° C. When indicated, transferrin-Alexa488 (Invitrogen) was also added for 10 min at 37° C. Cells were then washed and fixed with 4% paraformaldehyde for 15 min at room temperature. Nuclei were labeled with DAPI (1 μg/ml final) for 5 min. Slides were mounted using Prolong-Antifade (Molecular Probes). Samples were imaged with a confocal microscope (Zeiss LSM 700) and images analyzed with Adobe Photoshop.
To gain further insight into the interactions of TriManC24 with DC-SIGN expressed by DCs, a fluorescence-labeled TriManC24 was prepared by connecting Alexa Fluor 633 to hydroxyl groups of the mannose units. DCs were exposed to the labeled TriManC24 and visualized by confocal fluorescence microscopy.

For CCCCCCCCCCCCCCCCCCCCCCCCC(=O)NC(COCCC(=O)NCCOCCOCCOCCOC1OC(CO)C(O)C(O)C1O)(COCCC(=O)NCCOCCOCCOCCOC1OC(CO)C(O)C(O)C1O)COCCC(=O)NCCOCCOCCOCCOC1OC(CO)C(O)C(O)C1O (centres unmarked) [TriManC24], the “hydrodynamic diameter of micelles” value [1] was 39 nm and the “cell binding and internalization (in words)” value [2] was “binds to the cell membrane and can be internalized by DCs via clathrin -mediated endocytosis”.
